In assay [1] the target is T1, Nucleoside diphosphate phosphatase ENTPD5 (Homo sapiens) (UniProt O75356).
T1 sequence (whole entry): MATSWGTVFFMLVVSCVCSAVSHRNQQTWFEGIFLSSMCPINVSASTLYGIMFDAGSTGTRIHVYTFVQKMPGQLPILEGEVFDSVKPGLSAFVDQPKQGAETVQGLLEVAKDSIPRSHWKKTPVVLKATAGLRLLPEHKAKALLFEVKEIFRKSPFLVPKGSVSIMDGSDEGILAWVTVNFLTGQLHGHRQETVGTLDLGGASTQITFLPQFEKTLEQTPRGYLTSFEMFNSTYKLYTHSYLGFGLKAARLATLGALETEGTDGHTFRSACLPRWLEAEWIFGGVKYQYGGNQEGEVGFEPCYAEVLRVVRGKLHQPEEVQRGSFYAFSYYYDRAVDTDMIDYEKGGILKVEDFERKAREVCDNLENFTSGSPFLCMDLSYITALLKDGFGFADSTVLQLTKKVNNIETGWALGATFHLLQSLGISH
Briefly: Inhibition of human recombinant ENTPD5 expressed in insect cells assessed as reduction in UDP hydrolysis at 1 uM incubated for 1 hr in presence of UMP, GTP and ATP by Escherichia coli UMP kinase pyrH catalyzed UMP phosphorylation coupled luciferase assay.

Assay [2] deals with T1, Nucleoside diphosphate phosphatase ENTPD5 (Homo sapiens). Briefly: Inhibition of human recombinant ENTPD5 expressed in insect cells assessed as reduction in UDP hydrolysis up to 10 uM incubated for 1 hr in presence of UMP, GTP and ATP by Escherichia coli UMP kinase pyrH catalyzed UMP phosphorylation coupled luciferase assay.
For assay [3], the target named is T2, Uridylate kinase (Escherichia coli (strain K12)) (UniProt P0A7E9).
T2 sequence (whole entry): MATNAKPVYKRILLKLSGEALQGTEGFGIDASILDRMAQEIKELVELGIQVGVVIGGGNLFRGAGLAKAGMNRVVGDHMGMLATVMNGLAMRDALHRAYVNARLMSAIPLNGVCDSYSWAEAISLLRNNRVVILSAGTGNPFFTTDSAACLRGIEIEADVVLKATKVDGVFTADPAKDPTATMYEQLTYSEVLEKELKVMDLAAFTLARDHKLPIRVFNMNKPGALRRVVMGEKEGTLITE
Briefly: Inhibition of recombinant Escherichia coli UMP kinase pyrH catalyzed UMP phosphorylation in presence of GTP and ATP incubated for 1 hr by luminescence based assay.

The target in assay [4] is T1, Nucleoside diphosphate phosphatase ENTPD5 (Homo sapiens). Briefly: Inhibition of human recombinant ENTPD5 expressed in insect cells assessed as reduction in reduction in UDP hydrolysis by measuring inorganic phosphate release incubated for 1 hr by malachite green based assay.

The text below walks through data of ChEMBL document CHEMBL4418495, “Entpd5 inhibitors” (2012).

Active and inactive are the calls of the source. No rule for the calls is given here.

For the molecule `C=C[S+]([O-])c1sc(Cl)c(N2CCN(c3c(Cl)sc([S+]([O-])C=C)c3[N+](=O)[O-])CC2)c1[N+](=O)[O-]` (centres undefined), the inhibition entry in assay [1] and in assay [4] was “Active” throughout. Besides, in assay [2], the inhibition result is “Dose-dependent effect”. Further, the inhibition result in assay [3] is “inactive”.

Regarding `Cc1ccc(N2C(=O)/C(=C/c3cc(Br)cc(I)c3O)C(=O)NC2=S)cc1C`, the inhibition entry in assay [1] and in assay [4] was “Active” in each case. Besides, in assay [2], the inhibition entry is “Dose-dependent effect”. In addition, the inhibition result in assay [3] was “inactive”.

For `O=C1NC(=S)N(c2ccc(Cl)cc2)C(=O)/C1=C/c1ccc(I)o1`, the inhibition entry in assay [1] and in assay [4] was “Active” throughout. Further, in assay [2], the inhibition result is “Dose-dependent effect”. For the same molecule, the inhibition result in assay [3] is “inactive”.

Turning to `Cc1ccc(/C=C/C(=O)Nc2nc3ccc(Cl)cc3s2)o1`, the inhibition entry in assay [1] and in assay [4] was “Active” in each case. Also, the inhibition result in assay [2] is “Dose-dependent effect”. For the same molecule, the inhibition result in assay [3] was “inactive”.

Consider `O=c1cc(-c2ccco2)nc(-c2ccco2)o1`, for which the inhibition result in assay [1] and in assay [4] was “Active” in each case. The inhibition entry in assay [2] is “Dose-dependent effect”. Further, the inhibition result in assay [3] was “inactive”.

With `N#CC(c1ccc(Cl)cc1)c1c(Cl)cc(-n2ncc(=O)[nH]c2=O)cc1Cl` (centres undefined), the inhibition result in assay [1] and in assay [4] was “Active” in each case. The inhibition result in assay [2] was “Dose-dependent effect”. Further, the inhibition entry in assay [3] is “inactive”.

Consider `O=C(Nc1ccc2c(c1)S(=O)(=O)c1cc(NC(=O)c3cccs3)ccc1-2)c1cccs1`, for which the inhibition entry in assay [1] and in assay [4] was “Active” throughout. Besides, the inhibition entry in assay [2] was “Dose-dependent effect”. Also, in assay [3], the inhibition result was “inactive”.

Turning to `O=C(O)c1ccc(-c2ccc(/C=C3\SC(=S)N(c4ccc([N+](=O)[O-])cc4)C3=O)o2)cc1`, the inhibition result in assay [1] and in assay [4] was “Active” in each case. The inhibition entry in assay [2] was “Dose-dependent effect”. In addition, the inhibition entry in assay [3] was “inactive”.

In the case of `O=[N+]([O-])c1ccc(NCc2ccco2)c2nonc12`, the inhibition result in assay [1] and in assay [4] was “Active” throughout. Further, the inhibition entry in assay [2] was “Dose-dependent effect”. Also, the inhibition entry in assay [3] is “inactive”.

Regarding `O=C1c2c(O)cccc2Cc2cccc(O)c21`, the inhibition result in assay [1] and in assay [4] was “Active” each time. Besides, the inhibition entry in assay [2] was “Dose-dependent effect”. Further, in assay [3], the inhibition result is “inactive”.

As for `CN1C(=O)C(=Cc2ccc(Sc3ccccc3)o2)C(=O)N(C)C1=S`, the inhibition entry in assay [1] and in assay [4] was “Active” throughout. Also, the inhibition entry in assay [2] was “Dose-dependent effect”. For the same molecule, in assay [3], the inhibition entry is “inactive”.

Turning to `O=C1NC(=S)N(c2ccccc2F)C(=O)/C1=C/c1cccn1-c1ccc(Cl)cc1`, the inhibition entry in assay [1] and in assay [4] was “Active” throughout. The inhibition entry in assay [2] is “Dose-dependent effect”. Also, in assay [3], the inhibition result was “inactive”.

Regarding `O=C1/C(=C/c2ccc(-c3ccc(Cl)cc3)o2)SC(=S)N1Cc1ccco1`, the inhibition result in assay [1] and in assay [4] was “Active” each time. Also, the inhibition entry in assay [2] was “Dose-dependent effect”. Besides, the inhibition result in assay [3] is “inactive”.

In the case of `Cc1ccc(C)c(-c2nn(-c3ccccc3)cc2C=C2C(=O)NC(=O)NC2=O)c1`, the inhibition result in assay [1] and in assay [4] was “Active” in each case. Also, in assay [2], the inhibition entry is “Dose-dependent effect”. Besides, the inhibition result in assay [3] is “inactive”.

Regarding `COc1ccc(-n2cccc2/C=C2\C(=O)NC(=S)N(c3ccc(C)c(C)c3)C2=O)cc1`, the inhibition result in assay [1] and in assay [4] was “Active” in each case. The inhibition entry in assay [2] is “Dose-dependent effect”. In addition, in assay [3], the inhibition entry was “inactive”.

For the molecule `CC1=NN(c2ccc(S(N)(=O)=O)cc2)C(=O)/C1=C/c1ccc(-c2ccc(C)cc2[N+](=O)[O-])o1`, the inhibition result in assay [1] and in assay [4] was “Active” throughout. Also, the inhibition entry in assay [2] is “Dose-dependent effect”. Moreover, the inhibition entry in assay [3] was “inactive”.

`COC(=O)Cn1cc(/C=C2\C(=O)NC(=S)N(c3ccc(Cl)cc3)C2=O)c2ccccc21`: the inhibition result in assay [1] and in assay [4] was “Active” in each case. For the same molecule, the inhibition entry in assay [2] was “Dose-dependent effect”. Moreover, the inhibition entry in assay [3] was “inactive”.

Turning to `CCN(CC)c1ccc2cc(C(N)=O)/c(=N/c3cccc4ccccc34)oc2c1`, the inhibition entry in assay [1] and in assay [4] was “Active” each time. In addition, in assay [2], the inhibition entry is “Dose-dependent effect”. Moreover, in assay [3], the inhibition result is “inactive”.

`COC(=O)Cn1c(/C=C2\C(=O)NC(=S)N(c3cccc(Br)c3)C2=O)cc2ccccc21`: the inhibition result in assay [1] and in assay [4] was “Active” in each case. For the same molecule, the inhibition result in assay [2] was “Dose-dependent effect”. The inhibition entry in assay [3] is “inactive”.

As for `CC1=C(C(=O)OC(C)C)C(c2cn(-c3ccccc3)nc2-c2ccc(Cl)cc2)C(C(=O)OC(C)C)=C(C)N1`, the inhibition result in assay [1] and in assay [4] was “Active” each time. Further, the inhibition result in assay [2] was “Dose-dependent effect”. Besides, the inhibition result in assay [3] was “inactive”.

As for `N#CC1=C(N)C(C#N)(C#N)C(c2ccc(OCc3ccc(Cl)cc3)c([N+](=O)[O-])c2)C2CCCC=C12` (centres undefined), the inhibition entry in assay [1] and in assay [4] was “Active” each time. Moreover, the inhibition entry in assay [2] was “Dose-dependent effect”. In assay [3], the inhibition result is “inactive”.

As to `O=C1OC(c2ccccc2)OC(=O)C1=Cc1ccc(-c2cc([N+](=O)[O-])ccc2Cl)o1` (centres undefined), the inhibition entry in assay [1] and in assay [4] was “Active” throughout. In assay [2], the inhibition entry was “Dose-dependent effect”. The inhibition result in assay [3] is “inactive”.

Regarding `CCN1C(=O)c2ccc(-c3ccc(C=C4C(=O)NC(=S)NC4=O)o3)cc2C1=O`, the inhibition entry in assay [1] and in assay [4] was “Active” each time. In addition, the inhibition result in assay [2] was “Dose-dependent effect”. The inhibition entry in assay [3] is “inactive”.

Turning to `COc1ccc(N2C(=O)/C(=C/c3cccn3-c3ccc(Br)cc3)C(=O)NC2=S)cc1`, the inhibition result in assay [1] and in assay [4] was “Active” in each case. In addition, the inhibition entry in assay [2] was “Dose-dependent effect”. Moreover, the inhibition result in assay [3] was “inactive”.

In the case of `O=C(O)c1ccc(NC(=O)c2ccc3c(c2)C(=O)N(c2ccc(/N=N/c4ccccc4)cc2)C3=O)cc1`, the inhibition entry in assay [1] and in assay [4] was “Active” in each case. In assay [2], the inhibition entry is “Dose-dependent effect”. Moreover, the inhibition entry in assay [3] is “inactive”.

For the molecule `O=C1NC(=O)N(c2ccc(Cl)cc2)C(=O)/C1=C/c1cccn1-c1ccccc1`, the inhibition entry in assay [1] and in assay [4] was “Active” each time. Moreover, the inhibition result in assay [2] is “Dose-dependent effect”. The inhibition result in assay [3] was “inactive”.

Turning to `COc1cccc(C(c2cc(C(C)(C)C)c(O)c(C(C)(C)C)c2)N2CCOCC2)c1OC` (centres undefined), the inhibition result in assay [1] and in assay [4] was “Active” throughout. In assay [2], the inhibition entry is “Dose-dependent effect”. The inhibition entry in assay [3] was “inactive”.

For `COc1cc(/C=C2/SC(=S)N(C3CCCCC3)C2=O)cc(Cl)c1O`, the inhibition entry in assay [1] and in assay [4] was “Active” in each case. The inhibition entry in assay [2] was “Dose-dependent effect”. In addition, the inhibition result in assay [3] was “inactive”.

As for `O=C(NCCNc1ccc([N+](=O)[O-])cc1)c1ccc(CSc2nnnn2-c2ccccc2)cc1`, the inhibition result in assay [1] and in assay [4] was “Active” in each case. Besides, the inhibition result in assay [2] is “Dose-dependent effect”. Besides, the inhibition entry in assay [3] is “inactive”.

Consider `N=C1NC(=O)/C(=C/C=C/c2ccc([N+](=O)[O-])o2)S1`, for which the inhibition result in assay [1] and in assay [4] was “Active” in each case. Also, the inhibition result in assay [2] is “Dose-dependent effect”. The inhibition result in assay [3] was “inactive”.

As for `O=C(NC12CC3CC(CC(C3)C1)C2)N1CCN(C(=O)c2ccco2)CC1`, the inhibition entry in assay [1] and in assay [4] was “Active” each time. The inhibition entry in assay [2] was “Dose-dependent effect”. Moreover, in assay [3], the inhibition entry was “inactive”.
